In publication PMC6437697 (Journal of Medicinal Chemistry, 2019):

What was measured:
Assay in all cases: KINOMEscan
Format in all cases: binding
Conditions in all cases: read-out: % control activity remaining
PYK2 = molecular target: T1, PYK2 (Homo sapiens, UniProt Q14289)
T1 construct: purchased Eurofins DiscoverX KINOMEscan

NEK4 = molecular target: T2, NEK4 (Homo sapiens, UniProt P51957)
T2 construct: purchased Eurofins DiscoverX KINOMEscan

NEK3 = molecular target: T3, NEK3 (Homo sapiens, UniProt P51956)
T3 construct: purchased Eurofins DiscoverX KINOMEscan
T3 sequence (P51956 1-506): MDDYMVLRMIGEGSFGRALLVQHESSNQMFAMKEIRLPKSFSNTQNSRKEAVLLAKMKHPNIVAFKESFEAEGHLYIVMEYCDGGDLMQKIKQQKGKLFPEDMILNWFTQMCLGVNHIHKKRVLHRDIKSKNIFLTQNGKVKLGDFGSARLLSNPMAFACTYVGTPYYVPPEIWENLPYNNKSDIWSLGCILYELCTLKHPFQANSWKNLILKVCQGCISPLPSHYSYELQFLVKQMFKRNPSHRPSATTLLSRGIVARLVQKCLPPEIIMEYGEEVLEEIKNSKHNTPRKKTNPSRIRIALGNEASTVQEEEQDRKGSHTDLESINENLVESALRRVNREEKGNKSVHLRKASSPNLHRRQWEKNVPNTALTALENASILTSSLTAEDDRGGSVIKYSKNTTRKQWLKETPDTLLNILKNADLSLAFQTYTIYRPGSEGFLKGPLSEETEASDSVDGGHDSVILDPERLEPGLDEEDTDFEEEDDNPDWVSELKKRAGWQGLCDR

NIM1 = molecular target: T4, NIM1 (Homo sapiens, UniProt Q8IY84)
T4 construct: purchased Eurofins DiscoverX KINOMEscan
T4 sequence (Q8IY84 whole entry): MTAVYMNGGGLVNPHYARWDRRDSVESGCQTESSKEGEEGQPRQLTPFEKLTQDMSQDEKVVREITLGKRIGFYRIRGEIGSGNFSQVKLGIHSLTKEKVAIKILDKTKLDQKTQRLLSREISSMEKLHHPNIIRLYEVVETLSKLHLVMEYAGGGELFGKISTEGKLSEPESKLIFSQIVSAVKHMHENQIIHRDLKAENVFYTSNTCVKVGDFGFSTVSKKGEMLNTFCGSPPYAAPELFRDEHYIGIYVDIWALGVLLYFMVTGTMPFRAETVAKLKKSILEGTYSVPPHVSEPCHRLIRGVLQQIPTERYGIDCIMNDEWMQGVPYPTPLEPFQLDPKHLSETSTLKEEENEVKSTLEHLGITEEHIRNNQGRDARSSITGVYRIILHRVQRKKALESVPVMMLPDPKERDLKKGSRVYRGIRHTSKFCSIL

EGFR(E746-A750del) = molecular target: T5, EGFR(E746-A750del) (Homo sapiens, UniProt P00533, DEL746-750)
T5 construct: purchased Eurofins DiscoverX KINOMEscan
T5 sequence (P00533 with tags, fused parts or gaps DEL746-750 limits assumed): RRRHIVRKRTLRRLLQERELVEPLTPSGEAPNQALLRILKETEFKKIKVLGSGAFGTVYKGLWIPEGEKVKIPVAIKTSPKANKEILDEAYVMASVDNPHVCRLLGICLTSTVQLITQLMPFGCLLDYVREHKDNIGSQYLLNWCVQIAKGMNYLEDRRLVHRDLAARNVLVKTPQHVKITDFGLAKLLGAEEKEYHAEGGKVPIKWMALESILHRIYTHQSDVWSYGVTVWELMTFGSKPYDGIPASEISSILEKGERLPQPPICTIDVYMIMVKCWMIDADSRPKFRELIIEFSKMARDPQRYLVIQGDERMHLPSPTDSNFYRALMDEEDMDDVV

HUNK = molecular target: T6, HUNK (Homo sapiens, UniProt P57058)
T6 construct: purchased Eurofins DiscoverX KINOMEscan
T6 sequence (P57058 1-714): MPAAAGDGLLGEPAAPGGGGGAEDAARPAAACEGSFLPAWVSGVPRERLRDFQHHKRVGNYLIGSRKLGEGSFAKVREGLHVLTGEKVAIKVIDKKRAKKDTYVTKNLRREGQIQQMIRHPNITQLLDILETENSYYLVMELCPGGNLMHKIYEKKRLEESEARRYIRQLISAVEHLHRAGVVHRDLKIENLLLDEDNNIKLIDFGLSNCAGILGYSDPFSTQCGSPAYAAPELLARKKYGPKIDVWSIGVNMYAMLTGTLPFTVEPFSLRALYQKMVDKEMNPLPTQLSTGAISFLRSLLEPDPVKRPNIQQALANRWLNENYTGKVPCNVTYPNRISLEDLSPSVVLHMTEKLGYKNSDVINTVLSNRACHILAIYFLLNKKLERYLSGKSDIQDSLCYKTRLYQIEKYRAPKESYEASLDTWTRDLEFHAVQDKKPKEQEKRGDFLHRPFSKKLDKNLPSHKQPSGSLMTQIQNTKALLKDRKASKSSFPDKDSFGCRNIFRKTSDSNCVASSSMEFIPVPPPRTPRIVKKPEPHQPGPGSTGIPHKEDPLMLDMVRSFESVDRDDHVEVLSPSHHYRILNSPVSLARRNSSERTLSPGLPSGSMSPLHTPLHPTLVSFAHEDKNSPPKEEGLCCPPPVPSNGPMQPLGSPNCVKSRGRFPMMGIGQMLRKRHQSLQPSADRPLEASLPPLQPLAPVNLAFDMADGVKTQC

p38-gamma = molecular target: T7, p38-gamma (Homo sapiens, UniProt P53778)
T7 construct: purchased Eurofins DiscoverX KINOMEscan
T7 sequence (P53778 1-367): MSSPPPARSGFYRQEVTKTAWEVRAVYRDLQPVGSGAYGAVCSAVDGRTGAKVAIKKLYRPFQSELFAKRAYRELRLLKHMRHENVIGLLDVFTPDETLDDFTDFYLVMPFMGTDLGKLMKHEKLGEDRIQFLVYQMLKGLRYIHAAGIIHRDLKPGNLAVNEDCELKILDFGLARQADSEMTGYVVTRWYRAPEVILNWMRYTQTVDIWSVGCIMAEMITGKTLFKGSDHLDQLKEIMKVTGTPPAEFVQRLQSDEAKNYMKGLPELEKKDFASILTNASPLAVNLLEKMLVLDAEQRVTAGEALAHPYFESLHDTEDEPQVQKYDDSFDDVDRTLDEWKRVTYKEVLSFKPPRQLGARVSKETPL

FLT3(D835Y) = molecular target: T8, FLT3(D835Y) (Homo sapiens, UniProt P36888, D835Y)
T8 construct: purchased Eurofins DiscoverX KINOMEscan
T8 sequence (P36888 27-993 D835Y): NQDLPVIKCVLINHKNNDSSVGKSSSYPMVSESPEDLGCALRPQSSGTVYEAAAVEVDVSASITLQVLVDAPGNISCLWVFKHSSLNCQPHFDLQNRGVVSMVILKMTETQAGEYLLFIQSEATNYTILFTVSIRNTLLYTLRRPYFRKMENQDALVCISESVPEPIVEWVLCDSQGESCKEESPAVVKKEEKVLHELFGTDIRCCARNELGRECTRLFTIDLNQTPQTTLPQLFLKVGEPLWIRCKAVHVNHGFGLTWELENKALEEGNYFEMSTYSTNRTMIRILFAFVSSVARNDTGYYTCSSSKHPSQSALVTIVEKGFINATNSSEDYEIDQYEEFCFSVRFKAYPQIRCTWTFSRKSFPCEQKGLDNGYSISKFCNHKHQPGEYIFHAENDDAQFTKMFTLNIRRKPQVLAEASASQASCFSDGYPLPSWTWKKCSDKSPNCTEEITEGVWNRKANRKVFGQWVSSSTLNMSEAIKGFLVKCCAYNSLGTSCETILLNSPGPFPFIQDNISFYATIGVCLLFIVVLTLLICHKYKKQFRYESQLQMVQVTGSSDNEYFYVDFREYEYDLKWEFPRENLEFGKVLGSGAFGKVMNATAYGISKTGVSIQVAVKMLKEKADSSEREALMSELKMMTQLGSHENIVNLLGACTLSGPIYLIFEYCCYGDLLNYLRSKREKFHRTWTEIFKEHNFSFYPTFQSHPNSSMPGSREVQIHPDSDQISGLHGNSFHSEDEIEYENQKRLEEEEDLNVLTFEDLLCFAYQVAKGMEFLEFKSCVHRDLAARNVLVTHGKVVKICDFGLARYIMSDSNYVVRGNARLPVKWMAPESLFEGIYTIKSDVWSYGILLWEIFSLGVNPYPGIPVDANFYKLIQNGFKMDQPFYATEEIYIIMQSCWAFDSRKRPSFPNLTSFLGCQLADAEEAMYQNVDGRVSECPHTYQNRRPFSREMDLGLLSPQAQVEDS

T1 sequence (Q14289 whole entry): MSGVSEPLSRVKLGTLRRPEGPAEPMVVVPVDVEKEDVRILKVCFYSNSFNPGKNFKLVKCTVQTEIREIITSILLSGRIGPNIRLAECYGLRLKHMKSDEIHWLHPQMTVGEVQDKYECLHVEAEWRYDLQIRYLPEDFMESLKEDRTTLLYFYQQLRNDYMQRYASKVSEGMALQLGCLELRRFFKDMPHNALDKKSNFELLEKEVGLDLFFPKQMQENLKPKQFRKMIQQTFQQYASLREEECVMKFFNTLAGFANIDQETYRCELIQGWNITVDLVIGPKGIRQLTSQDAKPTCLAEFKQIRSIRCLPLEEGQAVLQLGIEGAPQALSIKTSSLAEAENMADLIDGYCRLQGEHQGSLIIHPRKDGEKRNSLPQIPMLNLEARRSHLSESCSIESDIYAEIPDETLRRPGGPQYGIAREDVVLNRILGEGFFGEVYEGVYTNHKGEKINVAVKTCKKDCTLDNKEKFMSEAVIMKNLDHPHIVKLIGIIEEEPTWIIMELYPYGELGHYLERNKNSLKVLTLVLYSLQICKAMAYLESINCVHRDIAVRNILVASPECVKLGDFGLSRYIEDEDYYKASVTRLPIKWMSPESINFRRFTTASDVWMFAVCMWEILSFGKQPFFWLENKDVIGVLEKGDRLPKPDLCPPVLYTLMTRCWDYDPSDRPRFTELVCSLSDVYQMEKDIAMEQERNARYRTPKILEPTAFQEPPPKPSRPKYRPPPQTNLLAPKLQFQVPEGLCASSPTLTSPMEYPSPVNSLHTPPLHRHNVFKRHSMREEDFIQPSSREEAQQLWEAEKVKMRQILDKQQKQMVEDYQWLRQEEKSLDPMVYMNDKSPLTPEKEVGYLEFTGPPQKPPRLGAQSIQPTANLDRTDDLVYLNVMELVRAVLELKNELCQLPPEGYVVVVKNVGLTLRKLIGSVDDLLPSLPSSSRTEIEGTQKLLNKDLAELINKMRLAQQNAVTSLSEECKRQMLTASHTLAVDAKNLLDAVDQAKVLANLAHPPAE
T2 sequence (P51957 whole entry): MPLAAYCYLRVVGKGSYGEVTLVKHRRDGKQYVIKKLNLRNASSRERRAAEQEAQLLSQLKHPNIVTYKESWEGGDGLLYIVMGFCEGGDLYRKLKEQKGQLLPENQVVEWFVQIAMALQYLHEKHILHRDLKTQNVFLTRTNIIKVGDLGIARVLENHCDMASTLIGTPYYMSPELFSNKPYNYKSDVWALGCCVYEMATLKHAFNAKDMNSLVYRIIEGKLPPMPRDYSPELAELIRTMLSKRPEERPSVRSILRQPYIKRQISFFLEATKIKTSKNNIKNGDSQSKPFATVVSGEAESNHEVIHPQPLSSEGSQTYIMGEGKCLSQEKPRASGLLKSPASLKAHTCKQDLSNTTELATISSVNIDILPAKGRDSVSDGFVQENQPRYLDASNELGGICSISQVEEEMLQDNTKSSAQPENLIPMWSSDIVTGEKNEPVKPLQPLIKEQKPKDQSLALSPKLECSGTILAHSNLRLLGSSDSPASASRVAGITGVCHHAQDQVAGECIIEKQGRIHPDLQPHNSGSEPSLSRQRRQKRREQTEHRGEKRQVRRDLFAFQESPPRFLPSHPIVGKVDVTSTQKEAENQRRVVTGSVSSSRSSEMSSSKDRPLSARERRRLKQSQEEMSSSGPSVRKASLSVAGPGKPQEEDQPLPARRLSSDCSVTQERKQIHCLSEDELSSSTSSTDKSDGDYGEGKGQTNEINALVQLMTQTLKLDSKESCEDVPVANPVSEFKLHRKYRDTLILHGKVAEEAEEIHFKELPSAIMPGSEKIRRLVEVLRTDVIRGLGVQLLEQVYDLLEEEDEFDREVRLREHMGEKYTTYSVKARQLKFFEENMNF

Row | Compound | remaining binding at 1 µM (PYK2) [%] | remaining binding at 1 µM (NEK4) [%] | remaining binding at 1 µM (NEK3) [%] | remaining binding at 1 µM (NIM1) [%] | remaining binding at 1 µM (EGFR(E746-A750del)) [%] | remaining binding at 1 µM (HUNK) [%] | remaining binding at 1 µM (p38-gamma) [%] | remaining binding at 1 µM (FLT3(D835Y)) [%]
1 | Clc1cc(NCC2CC2)c2ncc(-c3ccc4[nH]ncc4c3)n2n1 [compound 2, 6-Chloro-N-(cyclopropylmethyl)-3-(1H-indazol-5-yl)imidazo[1,2-b]pyridazin-8-amine] | 84 | 99 | 93 | 97 | 84 | 90 | 73 | 10
2 | O=C(CN1CCOCC1)N[C@H]1CC[C@H](Nc2cc(Cl)nn3c(-c4ccc5[nH]ncc5c4)cnc23)CC1 [compound 26] | 86 | 100 | 88 | 91 | 91 | 100 | 91 | 17
3 | CN1CCC(CNc2cc(Cl)nn3c(-c4cc5nc(Nc6ccccc6)[nH]c5cc4F)cnc23)CC1 [compound 31, 6-Chloro-3-(6-fluoro-2-(phenylamino)-1H-benzo[d]imidazol-5-yl)-N-((1-methylpiperidin-4-yl)methyl)imidazo[1,2-b]pyridazin-8-amine] | 99 | 95 | 100 | 77 | 100 | 92 | 83 | 100
